Experimental data as given in patent publication US20110124630A1, “STEMONAMIDE SYNTHESIS INTERMEDIATE AND PHARMACEUTICAL COMPOSITION FOR PREVENTION AND/OR TREATMENT OF CANCER” (priority 2008, published 2011).

Assays:
[1] = target: Pim-3 (Homo sapiens, UniProt Q86V86); experiment: In vitro assay of Pim-3 kinase activity (His-Bad phosphorylation, ELISA with anti-pBad Ser112 antibody); type: biochemical; details: 0, 20, 40, 80, 160 μmol/l compound; 10 μmol/l ATP; 30° C. 1 hour; FIG. 1
Protocol: A His-Bad protein solution (3 μg/ml) diluted with a carbonate buffer (pH 9.6) (15 mmol/l Na2CO3(Wako), […] NaHCO3 (Wako), 0.02% (w/v) NaN3 (Wako), pH 9.6) was added at 100 μl/well to a 96-well microplate (Nunc-Immuno™ Plate, NUNC Brand Products, Nalge Nunc International, Denmark), and the plate was coated at 4° C. overnight. The plate was washed 3 times on the following day, a 1% BSA/PBS(−) solution was added at 150 μl/well, the plate was blocked at 37° C. for 1 hour, and the plate was then washed 3 times. A kinase buffer containing 19.2 nmol/l thioredoxin-hexahistidine-Pim-3 fusion protein, 10 μmol/l ATP (Cell Signaling), and Compounds 5, 7, and 12 synthesized in the examples above (0, 20, 40, 80, and 160 μmol/l) (25 mmol/l Tris-HCl (pH 7.5), 10 mmol/l MgCl2, 0.1 mmol/l Na3VO4, 2 mmol/l dithiothreitol (DTT), 5 mmol/l s-glycerophosphate, Cell Signaling) was added at 40 μl/well to the treated plate. After the reaction was carried out at 30° C. for 1 hour, the plate was washed 5 times, the 1.000-fold diluted anti-pBadser112 rabbit antibody (Cell Signaling) was added at 100 μl/well, and the reaction was carried out at 37° C. for 1 hour. […] The plate was subjected to the absorbance assay at 405 nm using a microplate reader (Model 550, Bio-Rad). […]

[2] = system: Hep3B; experiment: Cell growth assay (liver cancer cell), WST-1; type: cell-based, human; details: 4, 6, 8, 10 μmol/l, 0-96 hours, FIG. 8
Protocol: (§1) Human liver cancer cell lines (Hep3B, HuH7, and HepG2 at 4000, 3000, and 4000 cells/well) were dispensed into a 96-well cell culture Microtest Plate (Becton Dickinson) with 100 μl of culture media. The media were removed 16 to 18 hours after the initiation of culture, and media containing the test compounds (0.1% DMSO, Compound 7 (4, 6, 8, and 10 μmol/l)) were added at 100 μl/well. After culture was continued for 0, 24, 48, 72, and 96 hours, the medium containing the test compound was removed, and a 10% WST-1 medium (Roche) was added at 100 μl/well. After culture was conducted for an additional 1 hour, the absorbance at 450 nm was assayed using a microplate reader (Model 550, Bio-Rad). RPMI-1640 medium (SIGMA) was used, and 10% calf serum (Invitrogen), 50 U/ml penicillin G (SIGMA), and 50 μg/ml streptomycin (SIGMA) were added to the medium. The cell lines were cultured in a 37° C. 5% CO2 carbon dioxide incubator (ESPEC).

[3] = system: HepG2; experiment: Cell growth assay (liver cancer cell), WST-1; type: cell-based, human; details: 4, 6, 8, 10 μmol/l, 0-96 hours, FIG. 8
Protocol: as §1

[4] = system: HuH7; experiment: Cell growth assay (liver cancer cell), WST-1; type: cell-based, human; details: 4, 6, 8, 10 μmol/l, 0-96 hours, FIG. 8
Protocol: as §1

[5] = system: SW480; experiment: Cell growth assay (colon cancer cell), WST-1; type: cell-based, human; details: 4, 6, 8, 10 μmol/l, 0-96 hours, FIG. 9
Protocol: (§2) Human colon cancer cell lines (SW48, SW480, and HT29 at 3,000 cells/well) were dispensed into a 96-well cell culture Microtest Plate (Becton Dickinson) with 100 μl of culture media. The media were removed 16 to 18 hours after the initiation of culture, and the media containing the test compounds (0.1% DMSO, Compound 7 (4, 6, 8, and 10 μmol/l)) were added at 100 μl/well. After culture was continued for 0, 24, 48, 72, and 96 hours, the medium containing the test compound was removed, and a 10% WST-1 medium (Roche) was added at 100 μl/well. After culture was conducted for an additional 1 hour, the absorbance at 450 nm was assayed using a microplate reader (Model 550, Bio-Rad). RPMI-1640 medium (SIGMA) was used, and 10% calf serum (Invitrogen), 50 U/ml penicillin G (SIGMA), and 50 μg/ml streptomycin (SIGMA) were added to the medium. The cell lines were cultured in a 37° C. 5% CO2 carbon dioxide incubator (ESPEC).

[6] = system: HT29; experiment: Cell growth assay (colon cancer cell), WST-1; type: cell-based, human; details: 4, 6, 8, 10 μmol/l, 0-96 hours, FIG. 9
Protocol: as §2

[7] = system: SW48; experiment: Cell growth assay (colon cancer cell), WST-1; type: cell-based, human; details: 4, 6, 8, 10 μmol/l, 0-96 hours, FIG. 9
Protocol: as §2

[8] = system: MiaPaCa-2 cell line; experiment: Cell growth assay (pancreatic cancer cell), WST-1; type: cell-based, human; details: Compound 7 4-10 μmol/l, Compound 12 5-30 μmol/l, 0-96 hours, FIG. 6
Protocol: (§3) Human pancreatic cancer cell lines (PCI35, PCI55, PCI66, MiaPaCa-2, L3.6 […], and PANC-1) were dispensed into a 96-well cell culture Microtest Plate (Becton Dickinson) at 3,000 cells/well with 100 μl of culture media. The media were removed 16 to 18 hours after the initiation of culture, and media containing the test compounds (i.e., 0.1% DMSO, Compound 7 (4, 6, 8, 10 μmol/l), Compound 12 (5, 10, 20, 30 μmol/l)) were added at 100 μl/well. After culture was continued for 0, 24, 48, 72, and 96 hours, the medium containing the test compound was removed, and a 10% WST-1 medium (Roche) was added at 100 μl/well. After culture was conducted for an additional 1 hour, the absorbance at 450 nm was assayed using a microplate reader (Model 550, Bio-Rad). RPMI-1640 medium (SIGMA) was used for the PCI35, PCI55, PCI66, MiaPaCa-2, and PANC-1 cell lines, MEM medium (Invitrogen) was used for the L3.6 pl cell lines, and 10% calf serum (Invitrogen), 50 U/ml penicillin G (SIGMA), and 50 μg/ml streptomycin (SIGMA) were added to every medium. The cell lines were cultured in a 37° C. 5% CO2 carbon dioxide incubator (ESPEC).

[9] = system: PANC-1 cell line; experiment: Cell growth assay (pancreatic cancer cell), WST-1; type: cell-based, human; details: Compound 7 4-10 μmol/l, Compound 12 5-30 μmol/l, 0-96 hours, FIG. 4
Protocol: as §3

[10] = system: L3.6 pl cell line; experiment: Cell growth assay (pancreatic cancer cell), WST-1; type: cell-based, human; details: Compound 7 4-10 μmol/l, Compound 12 5-30 μmol/l, 0-96 hours, FIG. 5
Protocol: as §3

[11] = system: PCI66 cell line; experiment: Cell growth assay (pancreatic cancer cell), WST-1; type: cell-based, human; details: Compound 7 4-10 μmol/l, Compound 12 5-30 μmol/l, 0-96 hours, FIG. 7
Protocol: as §3

[12] = system: PCI55 cell line; experiment: Cell growth assay (pancreatic cancer cell), WST-1; type: cell-based, human; details: Compound 7 4-10 μmol/l, Compound 12 5-30 μmol/l, 0-96 hours, FIG. 3
Protocol: as §3

[13] = system: PCI35 cell line; experiment: Cell growth assay (pancreatic cancer cell), WST-1; type: cell-based, human; details: Compound 7 4-10 μmol/l, Compound 12 5-30 μmol/l, 0-96 hours, FIG. 2
Protocol: as §3

| melting point | SMILES | inhibition of Pim-3 activity [1] | inhibition of cell growth [2] | inhibition of cell growth [3] | inhibition of cell growth [4] | inhibition of cell growth [5] | inhibition of cell growth [6] | inhibition of cell growth [7] | inhibition of cell growth [8] | inhibition of cell growth [9] | inhibition of cell growth [10] | inhibition of cell growth [11] | inhibition of cell growth [12] | inhibition of cell growth [13] |
| --- | --- | --- | --- | --- | --- | --- | --- | --- | --- | --- | --- | --- | --- | --- |
| 209 to 211 °C | CCOC(=O)C#C[C@@]1(O)/C(=C/c2ccccc2)C[C@@H]2CCCCN3C(=O)CC[C@]231 [Compound 7] | inhibit the Pim-3 activity in a concentration-dependent manner | inhibit the growth | inhibit the growth | inhibit the growth | inhibit the growth | inhibit the growth | inhibit the growth | inhibit the growth | inhibit the growth | inhibit the growth | inhibit the growth | inhibit the growth | inhibit the growth |
|  | O=C1CC[C@@]23C(=O)CC[C@@H]2CCCCN13 [Compound 5] | inhibit the Pim-3 activity in a concentration-dependent manner |  |  |  |  |  |  |  |  |  |  |  |  |
